Source: patent US12723063B2, “GIPR-agonist compounds” (Eli Lilly and Company, priority 2019, dated 2026)
*1 amine or outer side, *2 acyl side, *3 side chain or, on linkers, in order; H or OH if unused. Where a SMILES comes first, the peptide text is derived from it. Side-chain parts run from the residue outwards. [ ]: non-standard residue; d: D form. The star is where a group is joined. C20 diacid = O=C(O)CCCCCCCCCCCCCCCCCCC(=O)*; αMePhe(2-F) = C[C@](N)(Cc1ccccc1F)C(=O)O; γGlu = O=C(O)[C@H](CCC(=O)[*:2])N[*:1]; αMeL = CC(C)C[C@](C)(N)C(=O)O; AEEA = NCCOCCOCC(=O)O; Aib = CC(C)(N)C(=O)O

What was measured:
human GLP-1R = target: T1, human GLP-1R (Homo sapiens, UniProt P43220); assay: [125I]-GLP-1 binding, SPA with WGA beads, 0.1% bacitracin; details: geometric mean, read-out: hGLP1R Ki
T1 construct: expressed in transfected cells; crude membranes
T1 sequence (P43220 24-463): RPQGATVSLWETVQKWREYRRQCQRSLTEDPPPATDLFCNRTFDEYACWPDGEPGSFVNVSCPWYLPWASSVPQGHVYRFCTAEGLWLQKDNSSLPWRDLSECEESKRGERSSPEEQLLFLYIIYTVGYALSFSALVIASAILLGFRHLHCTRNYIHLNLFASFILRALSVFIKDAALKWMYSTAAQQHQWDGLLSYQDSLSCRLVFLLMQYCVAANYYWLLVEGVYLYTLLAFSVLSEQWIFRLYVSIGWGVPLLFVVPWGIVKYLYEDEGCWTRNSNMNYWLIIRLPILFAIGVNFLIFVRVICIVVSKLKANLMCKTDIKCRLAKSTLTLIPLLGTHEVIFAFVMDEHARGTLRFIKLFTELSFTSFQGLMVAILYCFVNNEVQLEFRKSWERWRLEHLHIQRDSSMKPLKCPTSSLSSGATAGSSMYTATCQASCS
Outline: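 Binding buffer was 25 mM HEPES pH 7.4 with 2.5 mM CaCl2, 1 mM MgCl2, 0.1% (w/v) bacitracin, 0.003% Tween-20 and EDTA-free protease inhibitors. Four-parameter regression gave IC50, converted to Ki (geometric mean, SEM, n independent days).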

human GcgR = target: T2, human GcgR (Homo sapiens, UniProt P47871); assay: [125I]-Glucagon binding, SPA with WGA beads, 0.1% bacitracin; details: geometric mean, read-out: hGcgR Ki
T2 construct: expressed in transfected cells; crude membranes
T2 sequence (P47871 26-477): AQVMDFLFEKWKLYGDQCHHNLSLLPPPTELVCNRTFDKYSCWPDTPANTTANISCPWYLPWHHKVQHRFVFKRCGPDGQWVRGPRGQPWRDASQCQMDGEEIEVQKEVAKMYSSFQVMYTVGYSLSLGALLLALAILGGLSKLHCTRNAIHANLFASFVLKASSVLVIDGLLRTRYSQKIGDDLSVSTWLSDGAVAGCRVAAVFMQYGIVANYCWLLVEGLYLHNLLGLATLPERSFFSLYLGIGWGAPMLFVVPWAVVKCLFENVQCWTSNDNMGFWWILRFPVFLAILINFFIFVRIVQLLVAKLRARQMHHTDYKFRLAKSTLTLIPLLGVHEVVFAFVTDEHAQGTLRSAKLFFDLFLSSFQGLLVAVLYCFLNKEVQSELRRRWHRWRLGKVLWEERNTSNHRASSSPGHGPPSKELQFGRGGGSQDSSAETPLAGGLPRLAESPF
Outline: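 SPA competition binding with WGA beads on crude membranes from HEK293 cells stably expressing hGcgR. Buffer: 25 mM HEPES pH 7.4, 2.5 mM CaCl2, 1 mM MgCl2, 0.1% bacitracin, 0.003% Tween-20; 10-point 3-fold dilutions, NSB with 1 μM Gcg.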

SMILES	Ki (human GLP-1R) [nM]	Ki (human GcgR) [nM]
CC[C@H](C)[C@H](NC(=O)[C@H](Cc1ccccc1)NC(=O)[C@@H](NC(=O)CNC(=O)[C@H](CCC(=O)O)NC(=O)C(C)(C)NC(=O)[C@@H](N)Cc1ccc(O)cc1)[C@@H](C)O)C(=O)N[C@@H](CO)C(=O)N[C@@H](CC(=O)O)C(=O)N[C@@H](Cc1ccc(O)cc1)C(=O)N[C@@H](CO)C(=O)N[C@H](C(=O)N[C@@](C)(CC(C)C)C(=O)N[C@@H](CC(C)C)C(=O)N[C@@H](CC(=O)O)C(=O)N[C@@H](CCCCN)C(=O)N[C@@H](CCCCNC(=O)COCCOCCNC(=O)COCCOCCNC(=O)CC[C@H](NC(=O)CCCCCCCCCCCCCCCCCCC(=O)O)C(=O)O)C(=O)N[C@@H](Cc1c[nH]cn1)C(=O)N[C@@H](CCC(N)=O)C(=O)NC(C)(C)C(=O)N[C@@H](CC(=O)O)C(=O)N[C@@H](Cc1ccccc1)C(=O)N[C@H](C(=O)N[C@@H](CCC(=O)O)C(=O)N[C@@H](Cc1c[nH]c2ccccc12)C(=O)N[C@@H](CC(C)C)C(=O)N[C@@H](CC(C)C)C(=O)N[C@@H](C)C(=O)NCC(=O)NCC(=O)N1CCC[C@H]1C(=O)N[C@@H](CO)C(=O)N[C@@H](CO)C(=O)NCC(=O)N[C@@H](C)C(=O)N1CCC[C@H]1C(=O)N1CCC[C@H]1C(=O)N1CCC[C@H]1C(=O)N[C@@H](CO)C(N)=O)C(C)C)[C@@H](C)CC [Example 54] (H-Y[Aib]EGTFISDYSI[αMeL]LDKK([AEEA-AEEA-γGlu-C20 diacid])HQ[Aib]DFVEWLLAGGPSSGAPPPS-NH2)	49.9	386
CC[C@H](C)[C@H](NC(=O)[C@H](CO)NC(=O)[C@H](Cc1ccc(O)cc1)NC(=O)[C@H](CC(=O)O)NC(=O)[C@H](CO)NC(=O)[C@@H](NC(=O)[C@](C)(Cc1ccccc1F)NC(=O)[C@@H](NC(=O)CNC(=O)[C@H](CCC(=O)O)NC(=O)[C@H](C)NC(=O)[C@@H](Cc1ccc(O)cc1)NC(C)=O)[C@@H](C)O)[C@@H](C)CC)C(=O)N[C@@H](C)C(=O)N[C@@H](CC(C)C)C(=O)N[C@@H](CC(=O)O)C(=O)N[C@@H](CCCCN)C(=O)N[C@@H](CCCCNC(=O)COCCOCCNC(=O)COCCOCCNC(=O)CC[C@H](NC(=O)CCCCCCCCCCCCCCCCCCC(=O)O)C(=O)O)C(=O)N[C@@H](Cc1c[nH]cn1)C(=O)N[C@@H](CCC(N)=O)C(=O)NC(C)(C)C(=O)N[C@@H](CCC(=O)O)C(=O)N[C@@H](Cc1ccccc1)C(=O)N[C@H](C(=O)N[C@@H](CC(N)=O)C(=O)N[C@@H](Cc1ccc(O)cc1)C(=O)N[C@@H](CC(C)C)C(=O)N[C@@H](CC(C)C)C(=O)N[C@@H](CCC(=O)O)C(=O)NCC(=O)NCC(=O)N1CCC[C@H]1C(=O)N[C@@H](CO)C(=O)N[C@@H](CO)C(=O)NCC(=O)N[C@@H](C)C(=O)N1CCC[C@H]1C(=O)N1CCC[C@H]1C(=O)N1CCC[C@H]1C(=O)N[C@@H](CO)C(N)=O)C(C)C [Example 33] (Ac-[dY]AEGT[αMePhe(2-F)]ISDYSIALDKK([AEEA-AEEA-γGlu-C20 diacid])HQ[Aib]EFVNYLLEGGPSSGAPPPS-NH2)	31.2	63.5
